From US6737383B1, “Herbicidal oxadiazolidines” (priority 1999, dated 2004)

What was measured:
blackgrass = assay: Test B pre/postemergence blackgrass; format: in vivo, Alopecurus myosuroides
Method in brief: (§1)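 Herbicidal effect was estimated by eye on a ten-point control scale after plants spent twelve to sixteen days in a greenhouse following soil or foliar treatment. Foliar sprays targeted plants at one to four leaves; all doses were formulated in a non-phytotoxic solvent with surfactant.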

surinam grass = assay: Test B pre/postemergence surinam grass; format: in vivo, Brachiaria decumbens
Method in brief: as §1

cocklebur = assay: Test B pre/postemergence cocklebur; format: in vivo, Xanthium strumarium
Method in brief: as §1

crabgrass = assay: Test B pre/postemergence crabgrass; format: in vivo, Digitaria sanguinalis
Method in brief: as §1

giant foxtail = assay: Test B pre/postemergence giant foxtail; format: in vivo, Setaria faberii
Method in brief: as §1

morningglory = assay: Test B pre/postemergence morningglory; format: in vivo, Ipomoea hederacea
Method in brief: as §1

pigweed = assay: Test B pre/postemergence pigweed; format: in vivo, Amaranthus retroflexus
Method in brief: as §1

soybean = assay: Test B pre/postemergence soybean; format: in vivo, Glycine max
Method in brief: as §1

velvetleaf = assay: Test B pre/postemergence velvetleaf; format: in vivo, Abutilon theophrasti
Method in brief: as §1

wheat = assay: Test B pre/postemergence wheat; format: in vivo, Triticum aestivum
Method in brief: as §1

wild oat = assay: Test B pre/postemergence wild oat; format: in vivo, Avena fatua
Method in brief: as §1

purple nutsedge = assay: Test B pre/postemergence purple nutsedge; format: in vivo, Cyperus rotundus
Method in brief: as §1

rice = assay: Test B flood test rice; format: in vivo, Oryza sativa
Method in brief: (§2)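 Each value is a visual injury score relative to controls, with 10 meaning complete control and 0 no effect. Evaluation took place twelve to sixteen days after the 2-leaf-stage plants were treated and kept in the greenhouse.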

smallflower flatsedge = assay: Test B flood test smallflower flatsedge; format: in vivo, Cyperus difformis
Method in brief: as §2

bamyardgrass = assay: Test B flood test barnyardgrass; format: in vivo, Echinochloa crus-galli
Method in brief: as §2

[1] = Postemergence, Rate 250 g/ha, scale 0 to 10
[2] = Postemergence, Rate 500 g/ha, scale of 0 to 10 where 0 is no effect and 10 is complete control
[3] = Preemergence, Rate 62 g/ha, scale 0 to 10 (0 no effect, 10 complete control)
[4] = Preemergence, Rate 125 g/ha, scale of 0 to 10 where 0 is no effect and 10 is complete control
[5] = Preemergence, Rate 250 g/ha, scale of 0 to 10 where 0 is no effect and 10 is complete control
[6] = Preemergence, Rate 500 g/ha, scale 0 to 10, 0 is no effect, 10 is complete control
[7] = Rate 62 g/ha, Postemergence, scale of 0 to 10 where 0 is no effect and 10 is complete control
[8] = Rate 125 g/ha, Postemergence, scale 0 to 10, 0 is no effect, 10 is complete control
[9] = Preemergence, Rate 250 g/ha, scale 0 to 10, 0 is no effect, 10 is complete control
[10] = Postemergence block (flood test species), Rate 250 g/ha, scale 0 to 10
[11] = Postemergence section (flood test species), Rate 500 g/ha, scale of 0 to 10 where 0 is no effect and 10 is complete control
[12] = Rate 125 g/ha, Postemergence section (flood test species), scale 0 to 10, 0 is no effect, 10 is complete control

C=C[Si](C)(C)Cn1c(=O)on(C(=O)N(c2ccc(Cl)cc2)C(C)C)c1=O [Compound 425]
5: Morningglory plant response rating (morningglory; [8]) | Nutsedge plant response rating (purple nutsedge; [6])
4: Crabgrass plant response rating (crabgrass; [7]) | Morningglory plant response rating (morningglory; [6]) | Wheat plant response rating (wheat; [6]) | Plant response rating, Wild oats (wild oat; [4]) | Wild oats plant response rating (wild oat; [9])
8: Blackgrass plant response rating (blackgrass; [1]) | B. signalgrass plant response rating (surinam grass; [2]) | Plant response rating, B. signalgrass (surinam grass; [4]) | B. signalgrass plant response rating (surinam grass; [5]) | Crabgrass plant response rating (crabgrass; [1]) | Giant foxtail plant response rating (giant foxtail; [1])
7: Plant response rating, Blackgrass (blackgrass; [3]) | B. signalgrass plant response rating (surinam grass; Postemergence, Rate 250 g/ha, scale 0 to 10, 0 no effect, 10 complete control) | Crabgrass plant response rating (crabgrass; [8]) | Giant foxtail plant response rating (giant foxtail; [8]) | Barnyardgrass plant response rating (bamyardgrass; [11])
0: B. signalgrass plant response rating (surinam grass; [7]) | Cocklebur plant response rating (cocklebur; [1]) | Cocklebur plant response rating (cocklebur; [2]) | Plant response rating, Cocklebur (cocklebur; [3]) | Plant response rating, Cocklebur (cocklebur; [4]) | Cocklebur plant response rating (cocklebur; [9]) | Cocklebur plant response rating (cocklebur; [7]) | Cocklebur plant response rating (cocklebur; [8]) | Plant response rating, Morningglory (morningglory; [3]) | Plant response rating, Morningglory (morningglory; [4]) | Plant response rating, Redroot pigweed (pigweed; [3]) | Plant response rating, Redroot pigweed (pigweed; [4]) | Redroot pigweed plant response rating (pigweed; [8]) | Plant response rating, Soybean (soybean; [3]) | Plant response rating, Soybean (soybean; [4]) | Soybean plant response rating (soybean; [9]) | Soybean plant response rating (soybean; [6]) | Velvetleaf plant response rating (velvetleaf; [1]) | Plant response rating, Velvetleaf (velvetleaf; [3]) | Plant response rating, Velvetleaf (velvetleaf; [4]) | Velvetleaf plant response rating (velvetleaf; [8]) | Wheat plant response rating (wheat; [8]) | Wild oats plant response rating (wild oat; [8]) | Nutsedge plant response rating (purple nutsedge; [1]) | Nutsedge plant response rating (purple nutsedge; [2]) | Plant response rating, Nutsedge (purple nutsedge; [3]) | Plant response rating, Nutsedge (purple nutsedge; [4]) | Nutsedge plant response rating (purple nutsedge; [8]) | Rice plant response rating (rice; [10]) | Rice plant response rating (rice; [11]) | Rice plant response rating (rice; [12]) | S. Flatsedge plant response rating (smallflower flatsedge; [12]) | Barnyardgrass plant response rating (bamyardgrass; Rate 62 g/ha, Postemergence (flood test species), scale of 0 to 10 where 0 is no effect and 10 is complete control) | Barnyardgrass plant response rating (bamyardgrass; [12])
10: Blackgrass plant response rating (blackgrass; [6]) | Plant response rating, Crabgrass (crabgrass; [4]) | Crabgrass plant response rating (crabgrass; [9]) | Crabgrass plant response rating (crabgrass; [6]) | Plant response rating, Giant foxtail (giant foxtail; [3]) | Plant response rating, Giant foxtail (giant foxtail; [4]) | Giant foxtail plant response rating (giant foxtail; [9]) | Giant foxtail plant response rating (giant foxtail; [6]) | Morningglory plant response rating (morningglory; [2]) | Wild oats plant response rating (wild oat; [6])
2: Blackgrass plant response rating (blackgrass; [7]) | B. signalgrass plant response rating (surinam grass; [8]) | Cocklebur plant response rating (cocklebur; [6]) | Morningglory plant response rating (morningglory; [9]) | Redroot pigweed plant response rating (pigweed; [1]) | Redroot pigweed plant response rating (pigweed; [2]) | Soybean plant response rating (soybean; [1]) | Velvetleaf plant response rating (velvetleaf; [2]) | Velvetleaf plant response rating (velvetleaf; [9]) | Plant response rating, Wheat (wheat; [3]) | Plant response rating, Wheat (wheat; [4]) | Wild oats plant response rating (wild oat; [1]) | Plant response rating, Wild oats (wild oat; [3]) | S. Flatsedge plant response rating (smallflower flatsedge; [10])
3: Blackgrass plant response rating (blackgrass; [8]) | Plant response rating, B. signalgrass (surinam grass; [3]) | Redroot pigweed plant response rating (pigweed; [9]) | Redroot pigweed plant response rating (pigweed; [6]) | Soybean plant response rating (soybean; [2]) | Wheat plant response rating (wheat; [1]) | Wheat plant response rating (wheat; [9]) | Wild oats plant response rating (wild oat; [2]) | Nutsedge plant response rating (purple nutsedge; [9])
1: Soybean plant response rating (soybean; [8]) | Barnyardgrass plant response rating (bamyardgrass; [10])
6: Giant foxtail plant response rating (giant foxtail; [7]) | Morningglory plant response rating (morningglory; [1]) | Velvetleaf plant response rating (velvetleaf; [6]) | Wheat plant response rating (wheat; [2]) | S. Flatsedge plant response rating (smallflower flatsedge; [11])
9: Blackgrass plant response rating (blackgrass; [2]) | Plant response rating, Blackgrass (blackgrass; [4]) | Blackgrass plant response rating (blackgrass; [5]) | B. signalgrass plant response rating (surinam grass; Preemergence, Rate 500 g/ha, scale of 0 to 10 where 0 is no effect and 10 is complete control) | Crabgrass plant response rating (crabgrass; [2]) | Plant response rating, Crabgrass (crabgrass; [3]) | Giant foxtail plant response rating (giant foxtail; [2])
